Laboratory results as given in patent US20250243180A1, “TARGETED PROTEIN DEGRADATION” (Monte Rosa Therapeutics AG, priority 2023, published 2025).
Read-outs that look alike come from different tables or passages of the source.

Key:
CRBN-DDB1 = CRBN-DDB1 (Homo sapiens (Human), UniProt Q96SW2); test: Compound binding to CRBN by HTRF assay
Method in brief: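 Ki calculated via Cheng-Prusoff from geometric-mean EC50 values, after normalizing the HTRF ratio to lenalidomide (active) and DMSO (neutral) controls. Compounds (11 points, 1:3 steps) incubated 30 min at ambient temperature with CRBN-DDB1 2.5 nM, anti-His Tb cryptate and Cy5-thalidomide tracer 100 nM.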

NEK7 = NEK7 (Homo sapiens (Human), UniProt Q8TDX7+Q96SW2); test: NEK7 NanoBiT degradation assay in Cal51 NEK7 NanoBiT cell line; type: cell-based; settings: Cal51 NEK7 NanoBiT cells, 24 hours; for Dmax: CAL-51
NEK7, sequence (Q8TDX7 whole entry): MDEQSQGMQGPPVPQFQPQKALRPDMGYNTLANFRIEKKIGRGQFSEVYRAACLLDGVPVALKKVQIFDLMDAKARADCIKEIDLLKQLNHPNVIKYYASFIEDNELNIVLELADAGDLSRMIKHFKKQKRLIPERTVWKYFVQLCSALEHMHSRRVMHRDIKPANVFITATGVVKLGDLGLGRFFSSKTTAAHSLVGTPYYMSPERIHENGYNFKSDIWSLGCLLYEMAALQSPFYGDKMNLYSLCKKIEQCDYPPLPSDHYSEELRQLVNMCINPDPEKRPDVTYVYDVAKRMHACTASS
NEK7, sequence (Q96SW2 whole entry): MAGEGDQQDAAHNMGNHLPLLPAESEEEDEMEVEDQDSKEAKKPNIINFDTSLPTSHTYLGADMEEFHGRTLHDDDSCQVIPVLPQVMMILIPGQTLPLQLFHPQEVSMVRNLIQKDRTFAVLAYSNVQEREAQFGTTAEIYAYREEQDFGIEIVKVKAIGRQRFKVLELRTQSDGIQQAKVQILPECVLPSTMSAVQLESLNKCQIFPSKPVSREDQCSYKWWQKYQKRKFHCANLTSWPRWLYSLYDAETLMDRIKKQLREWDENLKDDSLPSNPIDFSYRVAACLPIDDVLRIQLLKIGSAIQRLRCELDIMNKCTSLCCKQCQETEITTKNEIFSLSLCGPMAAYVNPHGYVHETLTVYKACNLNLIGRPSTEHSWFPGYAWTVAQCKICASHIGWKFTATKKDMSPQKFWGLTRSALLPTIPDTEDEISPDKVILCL
NEK7, sequence (Q16531 2-1140 partner): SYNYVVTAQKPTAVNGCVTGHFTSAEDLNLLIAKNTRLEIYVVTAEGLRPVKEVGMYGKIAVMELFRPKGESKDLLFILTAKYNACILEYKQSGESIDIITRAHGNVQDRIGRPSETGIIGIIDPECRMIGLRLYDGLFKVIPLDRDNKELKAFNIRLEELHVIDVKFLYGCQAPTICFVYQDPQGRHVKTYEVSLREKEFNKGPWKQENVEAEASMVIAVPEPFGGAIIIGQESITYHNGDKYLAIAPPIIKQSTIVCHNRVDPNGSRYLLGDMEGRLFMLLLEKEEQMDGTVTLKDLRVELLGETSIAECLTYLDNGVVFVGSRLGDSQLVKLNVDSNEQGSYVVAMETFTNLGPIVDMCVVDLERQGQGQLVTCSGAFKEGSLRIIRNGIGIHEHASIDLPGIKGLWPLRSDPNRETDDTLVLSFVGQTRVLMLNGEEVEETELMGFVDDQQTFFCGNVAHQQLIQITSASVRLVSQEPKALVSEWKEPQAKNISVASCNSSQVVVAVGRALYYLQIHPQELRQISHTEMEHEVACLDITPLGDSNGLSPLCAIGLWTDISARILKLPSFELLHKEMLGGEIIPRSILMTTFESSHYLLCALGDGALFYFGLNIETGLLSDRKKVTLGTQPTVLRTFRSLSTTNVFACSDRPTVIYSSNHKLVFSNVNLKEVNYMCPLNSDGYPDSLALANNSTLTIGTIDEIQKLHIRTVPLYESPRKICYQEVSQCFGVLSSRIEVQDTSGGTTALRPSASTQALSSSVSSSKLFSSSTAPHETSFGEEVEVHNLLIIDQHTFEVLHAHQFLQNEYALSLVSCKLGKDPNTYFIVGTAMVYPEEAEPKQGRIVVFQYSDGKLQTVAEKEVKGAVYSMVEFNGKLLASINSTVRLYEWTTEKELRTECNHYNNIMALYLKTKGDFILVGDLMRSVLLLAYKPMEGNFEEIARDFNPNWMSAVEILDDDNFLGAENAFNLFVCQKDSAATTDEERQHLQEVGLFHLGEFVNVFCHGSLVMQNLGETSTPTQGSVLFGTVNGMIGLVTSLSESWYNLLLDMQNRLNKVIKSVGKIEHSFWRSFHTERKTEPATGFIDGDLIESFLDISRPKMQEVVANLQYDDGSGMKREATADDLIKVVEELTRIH
Method in brief: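 EC50 comes from a 4-parameter fit of control-normalized luminescence. The luminescence reports HiBiT-NEK7 (endogenous knock-in) complemented by stably expressed LgBiT in Cal51 cells after 24 h compound exposure at 37 °C. Final concentrations ran 1 μM to 0.05 nM, with Endurazine substrate present in the medium throughout.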

[1] = NEK7 degradation, read-out: NanoBiT Dmax
[2] = NEK7 degradation, read-out: NanoBiT DC50

CRBN-DDB1, sequence (Q96SW2 whole entry): as the sequence (Q96SW2 whole entry) above
CRBN-DDB1, sequence (Q16531 whole entry partner): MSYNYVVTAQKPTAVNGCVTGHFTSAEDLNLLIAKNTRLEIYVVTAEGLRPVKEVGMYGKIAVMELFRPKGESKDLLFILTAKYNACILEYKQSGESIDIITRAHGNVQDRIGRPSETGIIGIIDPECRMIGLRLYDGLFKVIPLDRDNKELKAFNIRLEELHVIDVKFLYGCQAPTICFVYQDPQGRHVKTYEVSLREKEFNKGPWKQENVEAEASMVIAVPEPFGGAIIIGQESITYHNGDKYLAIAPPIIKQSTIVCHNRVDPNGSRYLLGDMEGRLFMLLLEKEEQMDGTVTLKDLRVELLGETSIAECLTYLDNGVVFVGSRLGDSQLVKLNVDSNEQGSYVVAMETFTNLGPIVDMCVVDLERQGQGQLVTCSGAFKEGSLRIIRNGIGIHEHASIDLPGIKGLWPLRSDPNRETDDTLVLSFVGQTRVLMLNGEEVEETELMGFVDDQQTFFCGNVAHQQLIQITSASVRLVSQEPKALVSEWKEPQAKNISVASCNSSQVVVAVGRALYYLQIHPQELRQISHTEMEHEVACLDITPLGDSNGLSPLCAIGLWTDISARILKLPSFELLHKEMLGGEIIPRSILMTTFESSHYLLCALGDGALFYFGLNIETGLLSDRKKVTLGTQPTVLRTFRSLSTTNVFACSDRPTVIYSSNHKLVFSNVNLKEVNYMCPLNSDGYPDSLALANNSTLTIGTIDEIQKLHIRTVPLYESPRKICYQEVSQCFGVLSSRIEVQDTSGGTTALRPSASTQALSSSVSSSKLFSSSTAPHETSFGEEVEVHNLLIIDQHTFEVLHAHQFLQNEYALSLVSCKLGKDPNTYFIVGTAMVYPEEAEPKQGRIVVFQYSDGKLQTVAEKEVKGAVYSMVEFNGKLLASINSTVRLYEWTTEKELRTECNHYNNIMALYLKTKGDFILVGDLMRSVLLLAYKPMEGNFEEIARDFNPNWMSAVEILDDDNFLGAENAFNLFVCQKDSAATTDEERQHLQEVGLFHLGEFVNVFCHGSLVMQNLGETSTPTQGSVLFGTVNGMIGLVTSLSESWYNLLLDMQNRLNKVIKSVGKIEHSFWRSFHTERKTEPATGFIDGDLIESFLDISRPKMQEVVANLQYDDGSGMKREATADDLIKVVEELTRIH

Row | SMILES | EC50 (CRBN-DDB1) | EC50 (CRBN-DDB1; HTRF class, Cereblon binding) | Dmax (NEK7; read-out: NEK7 NanoBiT Dmax) | Dmax (NEK7; [1]) | DC50 (NEK7; read-out: NEK7 NanoBiT DC50) | DC50 (NEK7; [2])
1 | CC(C)(C(=O)NCc1cc(Cl)c(C2CCC(=O)NC2=O)c(Cl)c1)c1cc(C(F)(F)F)on1 (stereo not drawn) [Compound 230, N-(3,5-dichloro-4-(2,6-dioxopiperidin-3-yl)benzyl)-2-methyl-2-(5-(trifluoromethyl)isoxazol-3-yl)propanamide] | 110 nM | 100 to 1000 nM | 83% | > 75% | 23 nM | ≤ 100 nM
2 | CC(C)(C(=O)NCc1cc(Cl)c(C2CCC(=O)NC2=O)c(Cl)c1)c1ncc(CO)cn1 (stereo not drawn) [Compound 231, N-(3,5-dichloro-4-(2,6-dioxopiperidin-3-yl)benzyl)-2-(5-(hydroxymethyl)pyrimidin-2-yl)-2-methylpropanamide] | 140 nM | 100 to 1000 nM | 82% | > 75% | 23 nM | ≤ 100 nM
3 | CC(C)(C(=O)NCc1cc(Cl)c(C2CCC(=O)NC2=O)c(Cl)c1)c1cnc(C2CC2)cn1 (stereo not drawn) [Compound 232] | 150 nM | 100 to 1000 nM | 93% | > 75% | 3 nM | ≤ 100 nM
4 | COCc1nc(C(C)(C)C(=O)NCc2cc(Cl)c(C3CCC(=O)NC3=O)c(Cl)c2)ncc1C (stereo not drawn) [Compound 233, N-(3,5-dichloro-4-(2,6-dioxopiperidin-3-yl)benzyl)-2-(4-(methoxymethyl)-5-methylpyrimidin-2-yl)-2-methylpropanamide] | 190 nM | 100 to 1000 nM | 74% | 50 to 75% | 29 nM | ≤ 100 nM
5 | CCOc1cnc(C(C)(C)C(=O)NCc2cc(Cl)c(C3CCC(=O)NC3=O)c(Cl)c2)cn1 (stereo not drawn) [Compound 234, N-(3,5-dichloro-4-(2,6-dioxopiperidin-3-yl)benzyl)-2-(5-ethoxypyrazin-2-yl)-2-methylpropanamide] | 70 nM | ≤ 100 nM | 97% | > 75% | 1 nM | ≤ 100 nM
6 | CC(C)(C(=O)NCc1cc(Cl)c(C2CCC(=O)NC2=O)c(Cl)c1)c1ncc(C(=O)O)cn1 (stereo not drawn) [Compound 235, 2-(1-((3,5-dichloro-4-(2,6-dioxopiperidin-3-yl)benzyl)amino)-2-methyl-1-oxopropan-2-yl)pyrimidine-5-carboxylic acid] | 560 nM | 100 to 1000 nM | 11% | ≤ 50% | 1000 nM | > 1000 nM
7 | Cc1ocnc1C(C)(C)C(=O)NCc1cc(Cl)c(C2CCC(=O)NC2=O)c(Cl)c1 (stereo not drawn) [Compound 236] | 250 nM | 100 to 1000 nM | 71% | 50 to 75% | 41 nM | ≤ 100 nM
8 | [2H]C([2H])([2H])C(C(=O)NCc1cc(Cl)c(C2CCC(=O)NC2=O)c(Cl)c1)(c1ncc(C)cn1)C([2H])([2H])[2H] (stereo not drawn) [Compound 237] | 150 nM | 100 to 1000 nM | 87% | > 75% | 11 nM | ≤ 100 nM
9 | CC(C)(O)c1cnc(C(C)(C)C(=O)NCc2cc(Cl)c(C3CCC(=O)NC3=O)c(Cl)c2)cn1 (stereo not drawn) [Compound 238, N-(3,5-dichloro-4-(2,6-dioxopiperidin-3-yl)benzyl)-2-(5-(2-hydroxypropan-2-yl)pyrazin-2-yl)-2-methylpropanamide] | 170 nM | 100 to 1000 nM | 63% | 50 to 75% | 153 nM | 100 to 1000 nM
10 | Cc1nc(CNC(=O)C(C)(C)c2ccccc2)cc(Cl)c1C1CCC(=O)NC1=O (stereo not drawn) [Compound 239, N-((4-chloro-5-(2,6-dioxopiperidin-3-yl)-6-methylpyridin-2-yl)methyl)-2-methyl-2-phenylpropanamide] | 660 nM | 100 to 1000 nM | 47% | ≤ 50% | 909 nM | 100 to 1000 nM
11 | CC(C)(C(=O)NCc1cc(Cl)c(C2CCC(=O)NC2=O)c(Cl)c1)c1cnc(CC(F)F)cn1 (stereo not drawn) [Compound 240] | 150 nM | 100 to 1000 nM | 69% | 50 to 75% | 79 nM | ≤ 100 nM
12 | Cc1cnc(C(C)(CO)C(=O)NCc2cc(Cl)c(C3CCC(=O)NC3=O)c(Cl)c2)nc1 (stereo not drawn) [Compound 241, N-(3,5-dichloro-4-(2,6-dioxopiperidin-3-yl)benzyl)-3-hydroxy-2-methyl-2-(5-methylpyrimidin-2-yl)propanamide] | 140 nM | 100 to 1000 nM | 86% | > 75% | 15 nM | ≤ 100 nM
13 | CC(C)(C(=O)NCc1cc(Cl)c(C2CCC(=O)NC2=O)c(C#N)c1)c1ccccc1 (stereo not drawn) [Compound 242, N-(3-chloro-5-cyano-4-(2,6-dioxopiperidin-3-yl)benzyl)-2-methyl-2-phenylpropanamide] | 430 nM | 100 to 1000 nM | 59% | 50 to 75% | 319 nM | 100 to 1000 nM
14 | COCCc1cnc(C(C)(C)C(=O)NCc2cc(Cl)c(C3CCC(=O)NC3=O)c(Cl)c2)nc1 (stereo not drawn) [Compound 245, N-(3,5-dichloro-4-(2,6-dioxopiperidin-3-yl)benzyl)-2-(5-(2-methoxyethyl)pyrimidin-2-yl)-2-methylpropanamide] | 160 nM | 100 to 1000 nM | 48% | ≤ 50% | 672 nM | 100 to 1000 nM
15 | CC(C)(C(=O)NCc1ccc(C2CCC(=O)NC2=O)c(Cl)c1)c1nc2ccccc2o1 (stereo not drawn) [Compound 246, 2-(benzo[d]oxazol-2-yl)-N-(3-chloro-4-(2,6-dioxopiperidin-3-yl)benzyl)-2-methylpropanamide] | 180 nM | 100 to 1000 nM | 82% | > 75% | 27 nM | ≤ 100 nM
16 | CCc1cnc(C(C)(C)C(=O)NCc2cc(Cl)c(C3CCC(=O)NC3=O)c(Cl)c2)cn1 (stereo not drawn) [Compound 247] | 120 nM | 100 to 1000 nM | 83% | > 75% | 20 nM | ≤ 100 nM
17 | CC(C)(C(=O)NCc1cc(Cl)c(C2CCC(=O)NC2=O)c(Cl)c1)c1cnc(Cl)cn1 (stereo not drawn) [Compound 248] | 70 nM | ≤ 100 nM | 95% | > 75% | 2 nM | ≤ 100 nM
18 | CC(C)(C(=O)NCc1cc(F)c(C2CCC(=O)NC2=O)c(Cl)c1)c1nc2ccccc2o1 (stereo not drawn) [Compound 249] | 70 nM | ≤ 100 nM | 87% | > 75% | 7 nM | ≤ 100 nM
19 | COc1ccc(C(C)(C)C(=O)NCc2cc(F)c(C3CCC(=O)NC3=O)c(Cl)c2)cn1 (stereo not drawn) [Compound 250] | 70 nM | ≤ 100 nM | 96% | > 75% | 2 nM | ≤ 100 nM
20 | COc1cnc(C(C)(C)C(=O)NCc2cc(F)c(C3CCC(=O)NC3=O)c(Cl)c2)cn1 (stereo not drawn) [Compound 251] | 80 nM | ≤ 100 nM | 92% | > 75% | 4 nM | ≤ 100 nM
21 | CCOc1cnc(C(C)(C)C(=O)NCc2cc(F)c(C3CCC(=O)NC3=O)c(Cl)c2)cn1 (stereo not drawn) [Compound 252] | 50 nM | ≤ 100 nM | 93% | > 75% | 3 nM | ≤ 100 nM
22 | Cc1cnc(C(C)(C)C(=O)NCc2cc(F)c(C3CCC(=O)NC3=O)c(Cl)c2)nc1 (stereo not drawn) [Compound 253] | 140 nM | 100 to 1000 nM | 45% | ≤ 50% | 778 nM | 100 to 1000 nM
23 | Cc1coc(C(C)(C)C(=O)NCc2cc(F)c(C3CCC(=O)NC3=O)c(Cl)c2)n1 (stereo not drawn) [Compound 254] | 120 nM | 100 to 1000 nM | 55% | 50 to 75% | 278 nM | 100 to 1000 nM
24 | CC(F)(F)c1cnc(C(C)(C)C(=O)NCc2cc(F)c(C3CCC(=O)NC3=O)c(Cl)c2)cn1 (stereo not drawn) [Compound 255] | 90 nM | ≤ 100 nM | 54% | 50 to 75% | 464 nM | 100 to 1000 nM
25 | COc1cnc(C(C)(C)C(=O)NCc2cc(F)c(C3CCC(=O)NC3=O)c(Cl)c2)nc1 (stereo not drawn) [Compound 256] | 80 nM | ≤ 100 nM | 85% | > 75% | 11 nM | ≤ 100 nM
26 | CC(C)(C(=O)NCc1cc(Cl)c(C2CCC(=O)NC2=O)c(Cl)c1)c1cnc(OC(F)F)cn1 (stereo not drawn) [Compound 257] | 50 nM | ≤ 100 nM | 95% | > 75% | 1 nM | ≤ 100 nM
27 | CCOc1ccc(C(C)(C)C(=O)NCc2cc(F)c(C3CCC(=O)NC3=O)c(Cl)c2)nn1 (stereo not drawn) [Compound 258] | 70 nM | ≤ 100 nM | 91% | > 75% | 4 nM | ≤ 100 nM
28 | CC(C)(C(=O)NCc1cc(Cl)c(C2CCC(=O)NC2=O)c(Cl)c1)c1cnc(OC(F)(F)F)cn1 (stereo not drawn) [Compound 259] | 90 nM | ≤ 100 nM | 91% | > 75% | 6 nM | ≤ 100 nM
